Measurements taken from patent US20110076318A1, “RETINOID-CONTAINING SUSTAINED RELEASE INTRAOCULAR IMPLANTS AND RELATED MATTERS” (Allergan, Inc., priority 2004, published 2011).
Values after ≈ are worked out from the molar mass of the structure shown. Where two headings read alike, the source gives them in different places.

Assays:
[1] = tested on: retinal function and structure; assay: Blue light retinal degeneration model; assay type: in vivo, Sprague dawley rats; details: daily oral doses for five days before 12000 lux blue light, eight hours
Method: AGN 194310, AGN 194204, tazarotene and AGN 199852 were evaluated in the blue light retinal degeneration model. Sprague dawley rats were pretreated for five days with daily oral doses of the retinoids. The rats were then exposed to high intensity light, 12000 lux blue fluorescent, for eight hours. Five days post exposure the retinal function was assessed by full flash ERG and structure by outer nuclear layer thickness.

[2] = Measured lipophilicity of tazarotene; assay type: physicochemical
[3] = Plasma concentrations after topical and oral dosing of tazarotene; assay type: in vivo, patients; details: for Cmax: human, po, read-out: TAZAROTENE Cmax
Method: […] For the most part tazarotene is not observed in the plasma after topical or oral administration. Facile hydrolysis by pre-systemic metabolism rapidly generates the free acid. […] It is important to note that these are plasma concentrations and the eye plasma distribution ratio is 0.02. Over 90% of all patients in the phase 3 clinical trials had concentrations of the parent compound, tazarotene, <1 ng/mL with the highest being 6 ng/mL.
Oral delivery of 1.1 mg and 6 mg multiple doses led to 28.9 ng/mL and 227 ng/ml peak levels with a 2.56 ng/mL trough. This corresponds to a maximum possible 4 ng/mL ocular level for the highest dose. FIG. 11 depicts the tissue distribution of tazarotenic acid. The eyes show a 2% tissue/plasma ration in the rat. It should be noted that tazarotenic acid is 99% protein bound and distribution is limited to unbound drug.

[4] = Intraocular pharmacokinetics after single intravitreal injection of Tazarotene; assay type: in vivo, female New Zealand White rabbits; details: rabbit; for concentration at 2 hr / concentration at 24 hr / half-life: female, New Zealand White; for concentration at 2 hr / concentration at 24 hr: other: intravitreal injection; for concentration at 2 hr: 2 hr post dose; for concentration at 24 hr: 24 hr post dose; for half-life: topical or ocular
Method: The intraocular pharmacokinetics of Tazarotene was assessed in female New Zealand White rabbits following a single intravitreal injection. The rabbits were dosed with bilateral intravitreal injections of Tazarotene (1250 ng in 50 μL). At 0.5, 1, 2, 4, 8, 12, and 24 hr post dose, animals were sacrificed and the aqueous humor, vitreous humor, and retina samples were analyzed. […] The Tazarotene concentration in the retina was close to its vitreal concentration at all time points, declining from 859±131 ng/g at 2 hr post dose to 93.1±28.9 ng/g by 24 hr post dose. […] It was shown that Tazarotene has a relatively long intravitreal half-life and that the retinal concentration parallel the vitreous when given as a neat injection. However, despite a very low solubility the clearance of Tazarotene from the retina is fast enough to require sustained release for extended duration of action.

[5] = tested on: photoreceptors; assay: Rhodopsin mutant transgenic rat models of retinal degeneration; assay type: in vivo, Transgenic S334ter rats; details: i.p., S334ter line 3 and line 4
Method: The objective of this study was to determine the efficacy of various retinoids in preventing retinal damage or improving retinal survival in rhodopsin mutant transgenic rat models of retinal degeneration. The overall goal of the research was to investigate potential photoreceptor survival in mutant rhodopsin transgenic rats using RAR α, RAR β γ, and RXR retinoid agonists.
The experimental design was straightforward. A compound was injected daily to line 3 and every two days for line 4 animals (i.p.) for a given period and animals were sacrificed at the end by CO2 overdose followed immediately by vascular perfusion of mixed aldehydes. Two litters of rats were used:
1. Transgenic S334ter-3 rats. Line 3 bears a rhodopsin mutation S334ter. […] Injection of a compound will be given daily from PD 6 (post-delivery day 6) to PD 20.
2. Transgenic S334ter-4 rats. Line 4 bears a rhodopsin mutation S334ter. Animals of this line experience a 80% loss of photoreceptors by 60 days after birth. The ONL is reduced to one row of nuclei. Injection of a compound will be given every other day from PD 25 to PD 60.
For the line 3 animals, treatment started at PD 6 and the endpoint was PD 20. For the line 4, injection began at PD 25 and ended at PD60 when eyes were harvested. Eyes were embedded in an Epon/Araldite mixture for sectioning at 1 μm thickness along the vertical meridian. Protection of photoreceptors was be evaluated by counting the rows of nuclei in the outer nuclear layer.
The outcome was a measure of retinal outer layer thickness, and cytology over an 8 week period. Compounds included the retinoid agonists tazarotene (RAR β γ), AGN 195183 (RAR α) and AGN 194204 (RXR). […] This is a fairly harsh model and as such the modest improvement by tazarotene is quite significant.

[6] = tested on: PVR induced by human RPE cells; assay: PVR model with retinoid implants, Fastenberg scale; assay type: in vivo
Source text: PLA and PLGA implants 1.5 mm in diameter and 3 mm in length were fabricated by extrusion of the polymer drug blend. Tazarotenic acid (the free acid of Tazarotene) Tazarotene and 13-cis-retinoic acid were loaded into the implants at 10% concentrations. Briefly, pigmented rabbits were vitrectomized followed by intravitreal injection of 500,000 human RPE cells. After injection of the RPE cells the retinoid implants were placed into the vitreous and anchored to the sclera with the suture used to close the sclerotomy.
The eyes were examined weekly for 4 weeks. Severity of PVR was graded based on the Fastenberg scale. At 4 weeks gross pathology and limited histopathology were conducted.

[7] = Solubility of tazarotene; assay type: physicochemical
Method: This was due to the extremely low solubility of Tazarotene in 0.9% saline, which was determined to be less than 1 μg/mL. Therefore, it was difficult to see any differences in the release profiles of different formulations. Work began to search for a release medium that would differentiate the release profiles of all formulations.

[8] = retina, 1250 ng, read-out: Tazarotene concentration in the retina
[9] = vitreous humor, 1250 ng intravitreal, read-out: Tazarotene concentration in the vitreous humor

CCOC(=O)c1ccc(C#Cc2ccc3c(c2)C(C)(C)CCS3)nc1 [Tazarotene, Ethyl 6-[(4,4-dimethylthiochroman-6-yl)ethynyl]nicotinate]
protection of retinal function (ERG) and structure (outer nuclear layer thickness) [1]: significantly protect both retinal function and structure | logP [2]: 4.3 | logD ([2]; pH 7.4, value marked measured in Table 3, read-out: log D pH 7.4 (measured)): 4.3 | Cmax ([3]; plasma, 1.1 mg/Day, plasma, Oral 1.1 mg/Day, in 95%): < 0.1 ng/mL | Cmax ([3]; plasma, 3 mg/Day, plasma, Oral 3.0 mg/Day): < 0.1 ng/mL | Cmax ([3]; plasma, 6 mg/Day, plasma, Oral 6.0 mg/Day): < 0.1 ng/mL | highest plasma concentration of tazarotene in phase 3 clinical trials ([3]; in vivo): 6 ng/mL | plasma concentration of tazarotene in phase 3 clinical trials ([3]; over 90% of all patients): < 1 ng/mL | TAZAROTENE Cmax ([3]; plasma, Topical Gel 0.1%, for >90%): BLQ for >90% | concentration at 2 hr [4, 8]: 859 ± 131 ng/g | concentration at 24 hr [4, 8]: 93.1 ± 28.9 ng/g | half-life ([4]; retina, 1250 ng, read-out: mean t1/2 of elimination from the retina (converted)): 7.63 h | concentration at 2 hr [4, 9]: 578 ± 77 ng/g | concentration at 24 hr [4, 9]: 115 ± 33 ng/g | half-life ([4]; vitreous humor, 1250 ng, read-out: mean half-life (t1/2) in vitreous humor (converted)): 9.22 h | mean vitreal clearance (Cl) ([4]; in vivo): 0.123 mL/h | vitreal clearance ([4]; in vivo): 2.95 mL/day | protection of photoreceptors (outer nuclear layer) [5]: only compound to show efficacy | safety by gross pathology and limited histopathology ([6]; at 4 weeks): good safety profile | eyes progressed to traction retinal detachment ([6]; at 28 days, 10% loaded PLA/PLGA implants, intravitreal): 12% | solubility ([7]; 0.9% saline, saline or isotonic, read-out: solubility in 0.9% saline): < 1 µg/mL | solubility ([7]; water, read-out: solubility in water): 1 µg/mL (≈ 2.85 µM)
